Measurements as given in US8193343B2, “Manufacture and products thereof of photosensitizing nanomaterials and their use in photodynamic treatment” (Westfalische Wilhelms-Universitat Munster, priority 2009, dated 2012).

Test: phosphorescence of singlet oxygen (near IR emission spectrum)
Details: in CD2Cl2 at room temperature, λexc=670 nm
Protocol: The spectrum was recorded from a suspension of the photosensitizing nanomaterial in CD2Cl2 at room temperature, λexc=670 nm.
The singlet oxygen ^1O2 is produced by reaction of triplet oxygen (^3O2) with the monomeric form of the silicon (IV) phthalocyanine chloride complex, which is present on the surface of the zeolite L crystals, according to an example of the present disclosure. The generation of the singlet oxygen ^1O2 was investigated by measuring the near IR emission spectrum of the photosensitizing nanomaterials 40 in a suspension with deuteriated dichloromethane as the solvent (CD2Cl2). […] No characteristic phosphorescence can be detected.
Fluorescence emission and excitation spectra of the photosensitizing nanomaterial 40 suspended in CH2Cl2 were recorded by using a HORIBA Jobin-Yvon IBH FL-322 Fluorolog 3 spectrometer. The phosphorescence spectrum of ^1O2 in CD2Cl2 was recorded by using a HORIBA Jobin-Yvon IBH FL-322 Fluorolog 3 spectrometer equipped with an air-cooled Hamamatsu H9170-75 (InP/InGaAs) PMT detector.

SMILES: Cl[Si]1(Cl)n2c3c4ccccc4c2N=C2N=C(N=c4c5ccccc5c(n41)=NC1=NC(=N3)c3ccccc31)c1ccccc12 [silicon (IV) phthalocyanine chloride, Si(IV) phthalocyanine dichloride]
- generation of singlet oxygen (1O2), characteristic phosphorescence: does not show any generation of the singlet oxygen
